The text below walks through data of PMC12410356 (International Journal for Parasitology: Drugs and Drug …, 2025).

Read-outs that look alike come from different tables or passages of the source.

In data set [1] the test system is Reuber rat hepatoma (RH) cells. Conditions: ref Rufener et al., 2018, cited from earlier work.
The test system of data set [2] is E. multilocularis metacestode vesicles. Conditions: PGI release after five days; ref Rufener et al., 2018; cited from earlier work.
Data set [3] shares this test system. The experiment in a line: Metacestode vesicle viability assay (ATP, CellTiter-Glo). The class given is cell-based, Echinococcus multilocularis. The following applies: for viability at 10 µM: Echinococcus multilocularis, 288 h; for effect on metacestode vesicle viability (in words): twelve days, cut-off viability ≤30 %. The protocol:
Viability was assessed after 12 days using the same metacestode vesicles as for the PGI release assay. Triton X-100 was added to each well to a final concentration of 0.1 %. Subsequently the metacestode vesicles were broken mechanically and 50 μL of the supernatant was mixed with 50 μL of CellTiter-Glo® buffer (Promega, Dübendorf, Switzerland). Measurements were performed on a HIDEX Sense microplate reader.

Data set [4] deals with Reuber rat hepatoma (RH) cells. Put plainly: Mammalian cell toxicity, resazurin assay. The format is cell-based. The following applies: for IC50: 5 days incubation, mean ± SD. Here is the method:
Mammalian cell toxicity on RH cells was measured as described in [Rufener et al. (2018)] with few alterations. Briefly, confluent (50′000 cells/well) and pre-confluent (5′000 cells/well) were seeded into 96-well plates in DMEM supplemented with 10 % FBS, penicillin (100 U/mL), streptomycin (100 μg/mL) and tetracycline (5 μg/mL) and incubated at 37 °C under a humid, 5 % CO2 atmosphere for 24 h and 5 h respectively. Alexidine, ESI-09 and MMV1581545 were added to final concentrations ranging from 120 to 0.49 μM (1:3 serial dilution) to each well and then cells were incubated at 37 °C under a humid, 5 % CO2 atmosphere for 5 days. To measure viability, the medium was removed, 180 μL of PBS was added to the cells and resazurin was added to each well to a final concentration of 10 mg/L. The cells were then allowed to process the resazurin at RT for 1 h. Fluorescence was measured on a HIDEX Sense microplate reader. Measurements were performed in triplicates and IC50 values were calculated in R using the three parameter Weibull type 1 model for three independent experiments ([Ritler et al., 2020]).

Data set [5] has as its system E. multilocularis metacestode vesicles. The experiment in a line: Phosphoglucose isomerase (PGI) release assay (damage-marker release) on metacestode vesicles. Conditions: 10 μM; for PGI d5 (relative PGI release): 5 days; for PGI d12 (relative PGI release): 12 days; for activity in the PGI release assay (in words): twelve days, cut-off PGI release ≥20 %. The format is cell-based, Echinococcus multilocularis.

Data set [6] relates to E. multilocularis GL cells. Put plainly: Germinal layer cell viability assay (CellTiter-Glo). The format is cell-based, Echinococcus multilocularis. Conditions: for effect on GL cell viability (in words): 80 to 0.31 μM, 5 days. The protocol:
The isolation of GL cells was conducted according to ([Kaethner et al., 2023]). Briefly, conditioned DMEM (cDMEM) was prepared prior to isolation. For the preparation of cDMEM, 1 × 10^6 RH cells and 10 × 10^6 RH cells incubated in DMEM supplemented with 10 % FBS, penicillin (100 U/mL), streptomycin (100 μg/mL) and tetracycline (5 μg/mL) for six or four days, respectively, at 37 °C under a humid, 5 % CO2 atmosphere. The supernatant of each was mixed 1:1 and sterile filtrated, resulting in cDMEM. Metacestode vesicles of at least 6 months of age were washed with PBS, incubated in distilled H2O for 2.5 min and subsequently mechanically disrupted. The resulting pellet was resuspended in 7 vol of pre-warmed 0.05 % Trypsin/0.02 % EDTA and incubated at 37 °C for 30 min. GL cells were extracted from the laminated layer by vigorous shaking followed by filtration through a 30 μm mesh (Sefar AG, Heiden, Switzerland) and separated from calcareous corpuscles by short centrifugation at 50×g for 30 s at RT. The isolated cells were centrifuged for 10 min at 600×g and RT and the pellet was resuspended in cDMEM. The cell suspension was diluted 1:100 in PBS to measure the OD600. An OD600 value of 0.1 of this dilution was defined as one arbitrary unit (AU) per μL of the undiluted cell suspension corresponding to 0.97 ± 0.11 μg of total protein for the GL cells as measured via Pierce™ bicinchoninic acid (BCA) Protein Assay Kit according to the manufacturer's protocol (Fisher Scientific AG, Reinach, Switzerland). 1′000 AU per 5 mL of cDMEM were cultured at 37 °C overnight under a humid nitrogen atmosphere. The next day, 2′000 AU of GL cells were combined and further cultured for 3 h at 37 °C under a humid nitrogen atmosphere before they were used for further experiments.
To assess effects of compounds on the cell viability of isolated E. multilocularis GL cells, the protocol was applied as previously described ([Kaethner et al., 2023]). In short, 15 AU of GL cells were distributed into each well of a black 384-well plate. Compounds dissolved in DMSO (alexidine, carbendazim, ESI-09, MMV1581545 and oxfendazole) were added to final concentrations ranging from 80 to 0.31 μM (1:2 serial dilution) and the cells were cultured for 5 days at 37 °C under a humid, microaerobic atmosphere (85 % N2, 10 % CO2, 5 % O2). DMSO with the respective concentration was used as a solvent control. Viability was measured using the CellTiter-Glo® kit. Luminescence was measured using a HIDEX Sense microplate reader. Measurements were done in quadruplicates and represented as relative viability of the DMSO controls. IC50 values were calculated in R applying the five parameter logistic model for three independent experiments ([Ritler et al., 2020]).

Where [7] appears, read: pre-confluent, read-out: IC50 pre-confluent RH cells.
The mark [8] stands for this setting: confirmation screen, 10 μM, triplicates, mean, 12 days, read-out: Viability d12 (relative viability).
[9] abbreviates: overview screen, 10 μM, singlets, 12 days, relative to DMSO control, read-out: Viability d12 (relative viability).
[10] abbreviates: confirmation screen, triplicates, mean.
[11] abbreviates: overview screen, singlets, relative to 0.1 % Triton X-100, DMSO subtracted.
Where [12] appears, read: overview screen, 10 μM, singlets, 12 days, relative to DMSO control.

Turning to `Cc1[nH]c2cc(F)cc(F)c2c(=O)c1-c1ccc(Oc2ccc(OC(F)(F)F)cc2)cc1` [ELQ-400], the IC50 in data set [1] (confluent, read-out: IC50 confluent RH cells) is 2.07 ± 1.67 µM; in data set [1] (setting [7]) it was 0.25 ± 0.11 µM; in data set [2], 0.02 ± 0.01 µM.
As to `Cc1cc(O)c2c(c1)C(=O)c1c(I)c(C)c(I)c(O)c1C2=O` [MMV1581545], the viability at 10 µM in data set [3] (setting [8]) is 19.1%; in data set [3] (setting [9]) it was 16.4%. Moreover, the “toxicity against mammalian cell line (in words)” value in data set [4] (RH cells counter-screen) is listed as “moderate toxicity”. Further, the IC50 in data set [4] (Rattus norvegicus, 120 h, confluent, read-out: IC50 confluent RH cells) worked out at 21.3 ± 4.39 µM; in data set [4] (Rattus norvegicus, 120 h, pre-confluent, read-out: IC50 pre-confluent RH cells) it was 13.8 ± 1.09 µM; in data set [4] (setting [7]) it was 14.7 ± 2.09 µM; in data set [6] (Echinococcus multilocularis, 120 h, 5 days incubation, microaerobic, mean ± SD of three independent experiments) it was 7.89 ± 1.43 µM. The “PGI d5 (relative PGI release)” value in data set [5] (setting [10]) is recorded as 10.14%; in data set [5] (setting [11]), 18.0887%. Further, the “PGI d12 (relative PGI release)” value stood at 30.09% in data set [5] (setting [10]) and 27.8991% in data set [5] (setting [11]). Also, the “effect on GL cell viability (in words)” value in data set [6] is listed as “highly effective”.
`CC(C)(C)NC(=O)[C@@H]1CN(Cc2cnc3occc3c2)CCN1C[C@@H](O)C[C@@H](Cc1ccccc1)C(=O)N[C@H]1c2ccccc2C[C@H]1O` [MMV1782353]: the “Viability d12 (relative viability)” value in data set [3] (setting [12]) stood at 92.6641%. Besides, in data set [5] (setting [11]), the “PGI d5 (relative PGI release)” value stood at 0.2673% and the “PGI d12 (relative PGI release)” value is given as -0.3369%.
Turning to `Cc1cc(-c2ccccc2)c(C(=O)C(=O)Nc2ccc(N3CCN(c4ncc(F)cn4)CC3)cc2)n1C` [MMV1782354], the “Viability d12 (relative viability)” value in data set [3] (setting [12]) is given as 36.0707%. In addition, in data set [5] (setting [11]), the “PGI d5 (relative PGI release)” value was 1.821% and the “PGI d12 (relative PGI release)” value is -11.1929%.
On to `Nc1nc2c(Cc3cccnc3)c[nH]c2c(=O)[nH]1` [MMV1782355], for which the “Viability d12 (relative viability)” value in data set [3] (setting [12]) amounted to 81.2481%. Also, in data set [5] (setting [11]), the “PGI d5 (relative PGI release)” value is reported as -0.9111% and the “PGI d12 (relative PGI release)” value came out at 0.236%.
The corresponding values for `CN(O)C(=O)c1cc2c(CN3CCC[C@H]3C(N)=O)cn(Cc3ccc(F)cc3)c2cn1` [MMV1782386] are 103.448%, 0.7573% and -1.18%.
`COC(=O)Nc1nc2c(C)cccc2[nH]1` [MMV1782387]: the “Viability d12 (relative viability)” value in data set [3] (setting [12]) is listed as 91.1788%. In data set [5] (setting [11]), the “PGI d5 (relative PGI release)” value is -0.1734% and the “PGI d12 (relative PGI release)” value is on record as -20.8652%.
For `CNc1nc(=O)[nH]cc1F` [MMV1782388], the “Viability d12 (relative viability)” value in data set [3] (setting [12]) was 224.858%. In data set [5] (setting [11]), the “PGI d5 (relative PGI release)” value was -3.006% and the “PGI d12 (relative PGI release)” value was -25.8676%.
On to `Cc1cc(C)n(O)c(=O)c1` [MMV1782389], for which the “Viability d12 (relative viability)” value in data set [3] (setting [12]) was found to be 156.473%. In data set [5] (setting [11]), the “PGI d5 (relative PGI release)” value was -2.677% and the “PGI d12 (relative PGI release)” value is on record as -25.4049%.
`Cc1cc(C)n2nc(C(=O)NS(=O)(=O)c3c(C)cccc3OC(F)(F)F)nc2n1` [MMV1782402]: in data set [3] (setting [12]), the “Viability d12 (relative viability)” value turned out to be 179.119%. For the same compound, in data set [5] (setting [11]), the “PGI d5 (relative PGI release)” value is given as -1.59% and the “PGI d12 (relative PGI release)” value was 1.998%.
The corresponding values for `CCNC(=O)Nc1cn2c(-c3ncc(CC)cn3)cc(-c3cccnc3)cc2n1` [MMV1782403] are 142.751%, -2.559% and 16.0574%.
`O=S(=O)(NCB(O)O)c1ccc(-c2nnn[nH]2)cc1C(F)(F)F` [MMV1782411]: the “Viability d12 (relative viability)” value in data set [3] (setting [12]) is listed as 79.3081%. In addition, in data set [5] (setting [11]), the “PGI d5 (relative PGI release)” value is reported as -0.527% and the “PGI d12 (relative PGI release)” value was -17.35%.
Turning to `NC(=O)C(c1ccccc1)(c1ccccc1)[C@H]1CCCN(CCc2ccc3c(c2)CCO3)C1` [MMV1782412], in data set [3] (setting [12]), the “Viability d12 (relative viability)” value was determined as 220.792%. Further, in data set [5] (setting [11]), the “PGI d5 (relative PGI release)” value stood at 1.533% and the “PGI d12 (relative PGI release)” value was determined as 2.087%.
As to `COC(=O)Nc1nc2ccccc2[nH]1` [carbendazim], the viability at 10 µM was found to be 36.4% in data set [3] (read-out: Viability d12 (relative viability), confirmation screen, 10 μM, triplicates, mean, 12 days) and 4.59% in data set [3] (read-out: Viability d12 (relative viability), overview screen, 10 μM, singlets, 12 days, relative to DMSO control). Further, the “PGI d5 (relative PGI release)” value in data set [5] (setting [10]) stood at 5.10%; in data set [5] (setting [11]), 6.336%. For the same compound, the “PGI d12 (relative PGI release)” value worked out at 24.66% in data set [5] (setting [10]) and 74.6935% in data set [5] (setting [11]). Besides, the “effect on GL cell viability (in words)” value in data set [6] is given as “did not reduce GL cell viability”; in data set [6] (listed as Carbendazim), “not able to decrease GL cell viability”.
With `CC(=O)Oc1ccccc1C(=O)Nc1ncc([N+](=O)[O-])s1` [nitazoxanide, reference compound], the viability at 10 µM in data set [3] (setting [9]) stood at 38.4%. For the same compound, the “effect on metacestode vesicle viability (in words)” value is recorded as “did not meet the threshold in the metacestode viability assay” in data set [3] (overview screen, 10 μM) and “did not reduce the metacestode vesicle viability” in data set [3] (overview screen, 10 μM, listed as MMV688991). Further, the “PGI d5 (relative PGI release)” value in data set [5] (setting [11]) is recorded as 37.9028%. Besides, the “PGI d12 (relative PGI release)” value in data set [5] (setting [11]) came to 44.5196%. In addition, the “activity in the PGI release assay (in words)” value is “showed activity in the PGI release assay” in data set [5] (overview screen) and “active in the PGI assay after twelve days” in data set [5] (overview screen, listed as MMV688991).
For the compound `COC(=O)Nc1nc2ccc([S+]([O-])c3ccccc3)cc2[nH]1` (centres unmarked) [oxfendazole, reference compound], the viability at 10 µM was 30.6% in data set [3] (setting [8]) and 15.1% in data set [3] (setting [9]). In addition, the “PGI d5 (relative PGI release)” value in data set [5] (setting [10]) is listed as 5.40%; in data set [5] (setting [11]) it was -1.521%. Moreover, the “PGI d12 (relative PGI release)” value in data set [5] (setting [10]) is reported as 29.07%; in data set [5] (setting [11]), 31.4286%. Further, the “effect on GL cell viability (in words)” value is given as “not able to decrease GL cell viability” in data set [6] and “did not reduce GL cell viability” in data set [6] (listed as Oxfendazole).

A word on the IC50: it is the midpoint of a concentration-inhibition curve. What is called viability is a read-out of living cells in per cent, often relative to untreated cells.
